Measurements: patent US9629828B2, “Methods of treating traveler's diarrhea and hepatic encephalopathy” (priority 2008, dated 2017)
Values joined by “and” are separate entries in the source; they are usually repeats but may differ in a detail not shown here. Equal entries are not always repeated. “Also recorded” adds a separate entry of the source.

Columns and labels:
[1] = test system: liver transplant patients who presented with HE; experiment: Chart review of 39 liver transplant patients with HE; type: in vivo, human
[2] = test system: subjects with a history of recurrent, overt, episodic HE; experiment: Second study: changes in Conn scores and asterixis grades; type: in vivo, human; settings: 266 subjects
[3] = test system: Campylobacter jejuni; experiment: Travelers' diarrhea Study 2: fever/blood in stool, Campylobacter jejuni; set-up: species or system human; settings: in vivo
Experimental: One study was conducted at clinical sites in Mexico, Guatemala, and Kenya (Study 1). The other study was conducted in Mexico, Guatemala, Peru, and India (Study 2). Stool specimens were collected before treatment and 1 to 3 days following the end of treatment to identify enteric pathogens. The predominant pathogen in both studies was Escherichia coli.
The results of Study 2 supported the results presented for Study 1. […] These subjects had lower clinical cure rates than those without fever or blood in the stool at baseline. Many of the patients with fever and/or blood in the stool (dysentery-like diarrheal syndromes) had invasive pathogens, primarily Campylobacter jejuni, isolated in the baseline stool.
In addition to not being different from placebo, the microbiologic eradication rates for subjects with Campylobacter jejuni isolated at baseline were much lower than the eradication rates seen for Escherichia coli.

[4] = biological target: P-glycoprotein (Homo sapiens, UniProt P08183); experiment: In vitro P-glycoprotein substrate study (efflux ratio, verapamil); type: in vitro ADME
Excerpt: Therefore, no clinically significant interactions with other drugs affected by P-glycoprotein are anticipated.

[5] = biological target: T1, cytochrome P450 2C19 (Homo sapiens, UniProt P33261); experiment: In vitro cytochrome P450 inhibition; type: in vitro ADME; settings: 2 to 200 ng/mL
T1 construct: from tissue; host or cells: human liver fractions

[6] = test system: subjects in remission from hepatic encephalopathy (HE); experiment: First study: HE-related, HE-caused and all-cause hospitalization; type: in vivo, human
[7] = test system: subjects with a history of recurrent, overt, episodic HE; experiment: Second study: hospitalization rates; type: in vivo, human
Excerpt: Normalizing for subject exposure, this represents a hospitalization rate of 0.60 event/PEY. A total of 59 were hospitalized due HE episodes (e.g., HE-caused). Normalizing for subject exposure, this represents an HE-caused hospitalization rate of 0.29 event/PEY. […] All subjects were capable of worsening over time, and 24/266 subjects (9.0%) did so by 1 or 2 grades.

[8] = clinical; settings: human, in vivo
Excerpt: Results from the current study were compared with historical data from subjects with normal hepatic function.

[9] = in vitro; settings: human, plasma
[10] = biological target: P-gp transporter (Homo sapiens, UniProt P08183); experiment: In vitro P-gp transporter inhibition; type: in vitro ADME; settings: 50 μM
[11] = test system: rabbits; settings: rabbit, in vivo
[12] = test system: subjects with a history of recurrent, overt, episodic HE; settings: human, in vivo
Excerpt: At the time of this interim analysis, TEAEs were reported in 230 subjects (86.5%). The most common TEAEs (e.g., in ≧10% of total subjects) experienced by subjects were the following: peripheral edema (15.8%); urinary tract infection and nausea (12.8% each); and abdominal pain and ascites (10.5% each).
Treatment-emergent SAEs were experienced by 47.4% of subjects.

[13] = both, human, in vivo
Experimental: Two studies evaluated the pharmacokinetics of rifaximin in patients with hepatic impairment. […] Because of the limited systemic absorption of rifaximin, no specific dosing adjustments are recommended for patients with hepatic insufficiency.
A pharmacokinetic investigation was performed in subjects with HE in a dose-finding study.

[14] = biological target: T2, cytochrome P450 2D6 (Homo sapiens, UniProt P10635); experiment: In vitro cytochrome P450 inhibition; type: in vitro ADME; settings: 2 to 200 ng/mL
T2 construct: from tissue; host or cells: human liver fractions

[15] = test system: subjects in remission from hepatic encephalopathy (HE); experiment: First study: HE-related, HE-caused and all-cause hospitalization; type: in vivo, human; settings: for Probability of no HE-related hospitalization: Kaplan-Meier; for Probability of no HE-related hospitalization / Cumulative number of events (HE-related hospitalization) / Event probability (HE-related hospitalization during the treatment interval) / Number of events (HE-related hospitalization): ITT, N = 140
Excerpt: The analysis of time to first HE-related hospitalization was based on the comparison of time to hospitalization between rifaximin and placebo.
FIG. 9 illustrates time to first HE-related hospitalization (e.g., hospitalization directly resulting from HE or hospitalization caused by HE) by treatment group in the ITT population in the first study. Table 19 presents estimates of the proportions of subjects who had their first HE-related hospitalization over the course of the Treatment Period and results of statistical analyses. Subjects who discontinued prior to hospitalization due to HE and prior to completion of the 6-month treatment period were censored at the time of discontinuation. […] This hazard ratio represents a 50% reduction, when compared with placebo, in the risk of hospitalization due to HE during the 6-month treatment period.
FIG. 5 illustrates time to first HE-caused hospitalizations by treatment group in the first study.

[16] = test system: epithelial cells; experiment: Effects of rifaximin on mammalian epithelial cells; type: cell-based
[17] = treatment interval 0 to <28 days
[18] = treatment interval 28 to <56 days
[19] = treatment interval 56 to <84 days
[20] = treatment interval 84 to <140 days
[21] = treatment interval 140 to <168 days

Sequence of P-glycoprotein (P08183 whole entry): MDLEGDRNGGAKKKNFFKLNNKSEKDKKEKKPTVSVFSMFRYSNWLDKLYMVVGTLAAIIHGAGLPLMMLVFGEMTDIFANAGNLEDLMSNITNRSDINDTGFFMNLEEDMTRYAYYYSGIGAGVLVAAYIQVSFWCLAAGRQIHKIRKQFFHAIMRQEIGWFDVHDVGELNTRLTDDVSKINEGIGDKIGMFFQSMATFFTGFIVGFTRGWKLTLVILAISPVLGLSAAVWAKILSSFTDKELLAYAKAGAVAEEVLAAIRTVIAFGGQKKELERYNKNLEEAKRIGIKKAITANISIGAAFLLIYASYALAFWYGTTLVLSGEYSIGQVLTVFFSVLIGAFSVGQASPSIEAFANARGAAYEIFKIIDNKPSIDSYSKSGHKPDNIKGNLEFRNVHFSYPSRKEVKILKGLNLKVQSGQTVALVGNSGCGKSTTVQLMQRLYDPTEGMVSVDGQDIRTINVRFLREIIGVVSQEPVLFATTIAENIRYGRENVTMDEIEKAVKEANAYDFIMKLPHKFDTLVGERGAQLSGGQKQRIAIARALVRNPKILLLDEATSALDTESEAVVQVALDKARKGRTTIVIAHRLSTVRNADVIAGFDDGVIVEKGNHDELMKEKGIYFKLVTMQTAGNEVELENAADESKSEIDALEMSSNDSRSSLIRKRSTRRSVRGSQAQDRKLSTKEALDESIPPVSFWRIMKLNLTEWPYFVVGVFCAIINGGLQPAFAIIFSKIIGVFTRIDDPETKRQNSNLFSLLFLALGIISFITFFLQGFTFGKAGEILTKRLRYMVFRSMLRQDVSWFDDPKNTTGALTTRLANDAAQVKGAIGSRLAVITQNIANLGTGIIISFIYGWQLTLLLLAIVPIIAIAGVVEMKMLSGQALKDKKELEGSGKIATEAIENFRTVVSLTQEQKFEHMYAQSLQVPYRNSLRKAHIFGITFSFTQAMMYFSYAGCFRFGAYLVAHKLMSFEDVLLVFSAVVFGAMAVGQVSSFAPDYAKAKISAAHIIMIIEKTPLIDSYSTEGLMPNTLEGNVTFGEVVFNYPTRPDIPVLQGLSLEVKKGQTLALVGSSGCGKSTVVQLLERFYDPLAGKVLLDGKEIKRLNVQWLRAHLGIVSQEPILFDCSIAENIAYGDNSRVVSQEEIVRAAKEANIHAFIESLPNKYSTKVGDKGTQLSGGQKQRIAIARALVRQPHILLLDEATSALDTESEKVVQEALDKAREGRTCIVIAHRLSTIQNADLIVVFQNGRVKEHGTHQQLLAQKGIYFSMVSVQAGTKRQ
T2 sequence (P10635 whole entry): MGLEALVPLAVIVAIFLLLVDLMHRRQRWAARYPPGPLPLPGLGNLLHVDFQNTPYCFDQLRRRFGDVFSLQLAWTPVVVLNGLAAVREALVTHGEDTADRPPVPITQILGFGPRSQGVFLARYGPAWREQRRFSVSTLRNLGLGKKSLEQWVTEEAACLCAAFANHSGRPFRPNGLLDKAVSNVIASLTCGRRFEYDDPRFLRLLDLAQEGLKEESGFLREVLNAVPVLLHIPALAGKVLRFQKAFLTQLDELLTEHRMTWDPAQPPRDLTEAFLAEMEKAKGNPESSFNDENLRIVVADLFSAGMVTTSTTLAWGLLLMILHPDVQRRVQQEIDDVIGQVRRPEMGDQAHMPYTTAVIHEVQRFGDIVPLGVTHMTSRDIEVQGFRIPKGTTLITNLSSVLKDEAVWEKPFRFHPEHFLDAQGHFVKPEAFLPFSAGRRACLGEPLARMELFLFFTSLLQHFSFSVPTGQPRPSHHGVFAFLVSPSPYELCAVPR
Sequence of P-gp transporter (P08183 whole entry): as the sequence (P08183 whole entry) above
T1 sequence (P33261 whole entry): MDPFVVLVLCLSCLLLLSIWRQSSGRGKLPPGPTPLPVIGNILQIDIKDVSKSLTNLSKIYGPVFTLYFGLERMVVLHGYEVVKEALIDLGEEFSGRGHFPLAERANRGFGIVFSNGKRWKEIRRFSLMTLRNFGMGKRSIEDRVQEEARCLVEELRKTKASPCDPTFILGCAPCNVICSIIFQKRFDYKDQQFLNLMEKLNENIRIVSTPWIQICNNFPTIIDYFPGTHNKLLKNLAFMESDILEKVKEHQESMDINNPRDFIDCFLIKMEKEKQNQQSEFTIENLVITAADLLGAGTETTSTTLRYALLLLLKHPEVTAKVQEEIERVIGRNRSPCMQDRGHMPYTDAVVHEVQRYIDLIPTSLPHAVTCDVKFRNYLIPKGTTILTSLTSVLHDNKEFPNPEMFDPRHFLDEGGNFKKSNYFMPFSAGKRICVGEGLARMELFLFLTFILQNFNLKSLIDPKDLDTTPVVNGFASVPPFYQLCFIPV

With `CO[C@H]1/C=C/O[C@@]2(C)Oc3c(C)c(O)c4c(O)c(c5c(nc6cc(C)ccn65)c4c3C2=O)NC(=O)/C(C)=C\C=C\[C@H](C)[C@H](O)[C@@H](C)[C@@H](O)[C@@H](C)[C@H](OC(C)=O)[C@@H]1C` [rifaximin, (2S,16Z,18E,20S,21S,22R,23R,24R,25 S,26S,27S,28E)-5,6,21,23,25-pentahydroxy-27-methoxy-2,4,11,16,20,22,24,26-octamethyl-2,7-(epoxypentadeca-[1,11,13]trienimino)benzofuro[4,5-e]pyrido[1,2-á]-benzimidazole-1,15(2H)-dione,25-acetate] the hospitalizations reported ([1]; 15 rifaximin, 24 lactulose patients) was 3, the “average length of stay” value ([1]; human, in vivo) was 3.5 days and the “subjects with worsening asterixis by 1, 2, or 4 grades” value [2] was 6.8%. For the same compound, the “clinical cure rate, Campylobacter jejuni as sole pathogen at baseline” value [3] was 23.5%, the “effectiveness in travelers' diarrhea due to Campylobacter jejuni” value [3] was “not effective” and the P-glycoprotein substrate [4] was “substrate of P-glycoprotein; also recorded: substrate for P-glycoprotein”. For the same compound, the “inhibition of 2C19” value [5] was “did not inhibit”, the all-cause hospitalization rate [6] was 0.92 events/PEY and 0.90 events/PEY and the “subjects hospitalized due HE episodes” value ([7]; in vivo) was 59 subjects. The “subjects hospitalized for any cause” value ([7]; in vivo) was 133 of 266, the HE-caused hospitalization rate ([7]; second study) was 0.29 event/PEY and the Cmax [8] was less than 4 ng/mL. The AUC ([8]; 550 mg) was 12.3 ng·h/mL, the fraction unbound [9] was 0.447 and the “inhibition of transport of a model P-gp substrate” value [10] was “only partially inhibited”. The toxic effects [11] was “negligible toxic effects”, the TEAE abdominal pain [12] was 10.5% and the TEAE ascites [12] was 10.5%. For the same compound, the TEAE nausea [12] was 12.8%, the TEAE peripheral edema [12] was 15.8% and the “TEAE urinary tract infection” value [12] was 12.8%. For the same compound, the “subjects with HE counted for the safety analyses” value [12] was 21.4%, the “subjects with TEAEs” value [12] was 86.5% and the “subjects with at least 1 severe TEAE” value [12] was 40.2%. For the same compound, the “subjects with treatment-emergent SAEs” value [12] was 47.4%, the “mean amount recovered in 24-h urine after last dose” value [13] was 0.06-0.1 % of dose and the “administered dose recovered in urine” value ([13]; 7 days) was “less than 0.1%”. For the same compound, the “inhibition of 2D6” value [14] was “did not inhibit”, the “reduction in risk of HE-caused hospitalization vs placebo” value ([15]; 6-month treatment) was 56% and the “reduction in risk of HE-related hospitalization vs placebo” value ([15]; 6-month treatment) was 50%. The “Probability of no HE-related hospitalization” value [15, 17] was 1.0000, the “Probability of no HE-related hospitalization” value [15, 18] was 0.9711 and the “Probability of no HE-related hospitalization” value [15, 19] was 0.9411. The “Probability of no HE-related hospitalization” value [15, 20] was 0.0904, the “Probability of no HE-related hospitalization” value [15, 21] was 0.8665 and the “Probability of no HE-related hospitalization” value ([15]; treatment interval ≧168 days) was 0.8475. The Survival ([15]; Table 4, N = 140, days r11-r21 as E901) was 1.0000 and 0.9564 and 0.9258 and 0.8848 and 0.8403 and 0.8108, the Survival ([15]; Table 17, days r10-r15 as E2201) was 1.0000 and 0.9711 and 0.9411 and 0.9094 and 0.8665 and 0.8475 and the HE-caused hospitalization rate ([15]; first study) was 0.30 events/PEY. For the same compound, the “HE-related hospitalization rate lower than placebo” value ([15]; in vivo) was 51%, the “reduction in risk of all-cause hospitalization vs placebo” value ([15]; in vivo) was 30% and the “subjects with HE-caused hospitalizations” value ([15]; in vivo) was 15 of 140. The “subjects with all-cause hospitalization” value ([15]; in vivo) was 46 of 140, the “time to first HE related hospitalization vs placebo (FIG. 3)” value ([15]; in vivo) was “increased time to hospitalization” and the HE-related hospitalization rate ([15]; normalized to exposure) was 0.38 event/PEY. For the same compound, the “Cumulative number of events (HE-related hospitalization)” value (shortened to “Cumulative number of events”) [15, 17] was 4, the “Event probability (HE-related hospitalization during the treatment interval)” value [15, 17] was 0.03 and the “Number of events (HE-related hospitalization)” value [15, 17] was 4. The “Cumulative number of events” value [15, 18] was 8, the “Event probability (HE-related hospitalization during the treatment interval)” value [15, 18] was 0.03 and the “Number of events (HE-related hospitalization)” value [15, 18] was 4. The “Cumulative number of events” value [15, 19] was 12, the “Event probability (HE-related hospitalization during the treatment interval)” value [15, 19] was 0.03 and the “Number of events (HE-related hospitalization)” value [15, 19] was 4. For the same compound, the “Cumulative number of events” value [15, 20] was 17, the “Event probability (HE-related hospitalization during the treatment interval)” value [15, 20] was 0.05 and the “Number of events (HE-related hospitalization)” value [15, 20] was 5. The “Cumulative number of events” value [15, 21] was 19, the “Event probability (HE-related hospitalization during the treatment interval)” value [15, 21] was 0.02 and the “Number of events (HE-related hospitalization)” value [15, 21] was 2. The “Cumulative number of events” value ([15]; treatment interval ≧168 days) was 19, the “Event probability (HE-related hospitalization during the treatment interval)” value ([15]; treatment interval ≧168 days) was 0 and the “Number of events (HE-related hospitalization)” value ([15]; treatment interval ≧168 days) was 0. The “effect on epithelial cells” value [16] was “resistant to bacterial colonization and internalization”.
